Experiment [1] has as its target Epstein-Barr nuclear antigen 1 (Epstein-Barr virus (strain B95-8) (HHV-4) (Human herpesvirus 4), UniProt P03211). Description: inhibition of EBV nuclear antigen 1 DNA binding – biochemical, fluorescence polarization, 1536-well, dose response (AID 2381).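 Note: fluorescence polarization of a Cy5 DNA probe bound by EBNA-1 protein.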 More on the design: species or system human gammaherpesvirus 4. On the technique in general: In fluorescence polarisation assays a small probe gives low polarisation when free and higher when bound to something large.

Experiment [2] concerns the target Lytic switch protein BZLF1 (Epstein-Barr virus (strain B95-8) (HHV-4) (Human herpesvirus 4), UniProt P03206). Nature of the experiment: inhibition of BZLF1 ZTA DNA binding – biochemical, fluorescence polarization, Epstein-Barr virus, 1536-well, counter-screen for EBNA-1 inhibitor project, dose response (AID 2377).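 Note: fluorescence polarization of Cy5-labelled ZRE DNA probe bound by purified Zta.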 More on the design: species or system human gammaherpesvirus 4.

The next experiment addresses Ion channel NompC (Danio rerio, UniProt Q7T1G6). Nature of the experiment: Fluorescence counterscreen assay for TRPML3 agonists: dose response cell-based high-throughput screening assay to identify agonists of the transient receptor potential channel N1 (TRPN1). [Related pubchem assays: 1526, 1424, 1448 ]. It is filed as functional. In general terms: A counterscreen serves to expose hits that act by an unwanted route or on another target.

Experiment [3] concerns the target Voltage-gated inwardly rectifying potassium channel KCNH2 (Homo sapiens, UniProt Q12809). Particulars: Potency.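 Note: confirmatory quantitative high-throughput screen measuring inhibition of hERG channel activity.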
In the next experiment the target is T1, Mucolipin-3 (Homo sapiens, UniProt Q8TDD5).
T1 sequence (Q8TDD5 whole entry): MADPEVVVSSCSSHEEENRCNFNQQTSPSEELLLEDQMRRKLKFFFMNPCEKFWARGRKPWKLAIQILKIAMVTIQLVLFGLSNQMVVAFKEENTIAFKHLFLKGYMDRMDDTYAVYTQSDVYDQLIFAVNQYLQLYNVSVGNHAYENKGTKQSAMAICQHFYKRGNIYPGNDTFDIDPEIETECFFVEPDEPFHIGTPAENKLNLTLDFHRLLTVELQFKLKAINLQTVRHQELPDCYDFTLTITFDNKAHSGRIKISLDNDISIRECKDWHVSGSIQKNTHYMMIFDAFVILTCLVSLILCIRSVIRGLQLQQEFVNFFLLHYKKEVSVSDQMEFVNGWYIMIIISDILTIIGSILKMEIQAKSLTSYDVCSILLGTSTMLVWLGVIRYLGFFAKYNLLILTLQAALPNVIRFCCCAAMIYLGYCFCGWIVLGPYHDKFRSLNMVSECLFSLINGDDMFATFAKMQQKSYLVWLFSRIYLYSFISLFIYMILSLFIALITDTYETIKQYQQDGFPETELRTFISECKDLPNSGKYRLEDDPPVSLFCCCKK
Nature of the experiment: Dose response cell-based high-throughput screening assay for agonists of the transient receptor potential channel ML3 (TRPML3). [Related pubchem assays: 1526, 1424, 1448 ]. It is filed as functional.

The target in experiment [4] is T2, Neuropeptide Y receptor type 1 (Homo sapiens, UniProt P25929).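 Note: HEK293 cells with a CNG channel challenged with NPY then isoproterenol; potency as antagonist that reverses NPY suppression of cAMP signal.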
T2 sequence (P25929 whole entry): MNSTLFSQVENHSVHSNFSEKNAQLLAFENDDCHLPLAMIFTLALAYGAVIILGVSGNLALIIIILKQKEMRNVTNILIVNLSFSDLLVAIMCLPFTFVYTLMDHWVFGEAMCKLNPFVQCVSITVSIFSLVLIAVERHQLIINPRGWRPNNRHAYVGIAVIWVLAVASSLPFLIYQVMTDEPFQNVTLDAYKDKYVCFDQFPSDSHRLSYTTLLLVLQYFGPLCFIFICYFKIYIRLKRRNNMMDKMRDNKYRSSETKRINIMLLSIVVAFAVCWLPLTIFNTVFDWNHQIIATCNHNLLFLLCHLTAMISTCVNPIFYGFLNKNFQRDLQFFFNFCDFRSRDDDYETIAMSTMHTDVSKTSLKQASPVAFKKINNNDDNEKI
It is filed as functional.

The target of experiment [5] is T3, Neuropeptide Y receptor type 2 (Homo sapiens, UniProt P49146).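 Note: HEK293 cells expressing the receptor and a CNG channel; stimulus was NPY near EC95 followed by isoproterenol to raise cAMP; antagonist potency measured as restoring cAMP signal that NPY suppresses.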
T3 sequence (P49146 whole entry): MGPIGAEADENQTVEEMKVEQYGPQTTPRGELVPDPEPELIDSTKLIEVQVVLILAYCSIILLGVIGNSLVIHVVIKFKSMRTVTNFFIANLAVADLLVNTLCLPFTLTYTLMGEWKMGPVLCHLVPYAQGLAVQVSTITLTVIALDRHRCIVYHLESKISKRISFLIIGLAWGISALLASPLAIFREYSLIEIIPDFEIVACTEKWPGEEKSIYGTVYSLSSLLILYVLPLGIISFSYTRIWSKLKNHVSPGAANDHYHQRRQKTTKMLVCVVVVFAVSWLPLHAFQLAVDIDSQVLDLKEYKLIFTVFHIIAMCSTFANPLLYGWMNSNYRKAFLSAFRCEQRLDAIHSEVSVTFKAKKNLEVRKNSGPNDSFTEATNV
Type of experiment: functional, cell-based.

In another experiment the test system is HT-1080. Nature of the experiment: HT1080 cell viability loss – fluorescence readout (AID 620). It is filed as functional, cell-based. Particulars: Homo sapiens.
Experiment [6] has as its target Luciferin 4-monooxygenase (Photinus pyralis, UniProt P08659). Description: Counter Screen for Luciferase-based Assay Positives. [Related pubchem assays: 620, 618, 411 ].
Experiment [7] addresses Glyceraldehyde-3-phosphate dehydrogenase (Homo sapiens, UniProt P04406).
The target of the next experiment is T4, Aspartyl aminopeptidase (Plasmodium falciparum 3D7, UniProt Q8I2J3).
T4 sequence (Q8I2J3 whole entry): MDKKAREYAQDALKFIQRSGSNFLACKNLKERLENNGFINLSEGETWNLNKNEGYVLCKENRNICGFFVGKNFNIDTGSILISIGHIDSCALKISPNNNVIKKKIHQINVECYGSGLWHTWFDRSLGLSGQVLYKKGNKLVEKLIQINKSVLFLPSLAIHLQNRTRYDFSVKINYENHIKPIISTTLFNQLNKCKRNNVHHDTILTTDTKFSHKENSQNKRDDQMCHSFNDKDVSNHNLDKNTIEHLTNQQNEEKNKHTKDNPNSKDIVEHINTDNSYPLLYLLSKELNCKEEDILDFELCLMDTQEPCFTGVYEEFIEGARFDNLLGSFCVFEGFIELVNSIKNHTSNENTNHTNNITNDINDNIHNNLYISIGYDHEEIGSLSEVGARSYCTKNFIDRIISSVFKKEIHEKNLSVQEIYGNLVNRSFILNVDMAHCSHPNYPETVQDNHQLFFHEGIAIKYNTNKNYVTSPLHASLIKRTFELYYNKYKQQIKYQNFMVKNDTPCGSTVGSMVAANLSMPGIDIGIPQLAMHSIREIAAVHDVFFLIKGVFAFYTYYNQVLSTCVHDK

Another experiment has as its target Procathepsin L (Homo sapiens, UniProt P07711).
A further experiment has as its target T5, NADPH oxidase 1 (Homo sapiens, UniProt Q9Y5S8).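 Note: Cell-based assay with luminescence read-out, IC50 derived from inhibitor dose-response curves; intracellular ROS from endogenous NOX1 in intact HT29 colon cancer cells; potency of inhibitors that lower the ROS luminescence signal.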
T5 sequence (Q9Y5S8 whole entry): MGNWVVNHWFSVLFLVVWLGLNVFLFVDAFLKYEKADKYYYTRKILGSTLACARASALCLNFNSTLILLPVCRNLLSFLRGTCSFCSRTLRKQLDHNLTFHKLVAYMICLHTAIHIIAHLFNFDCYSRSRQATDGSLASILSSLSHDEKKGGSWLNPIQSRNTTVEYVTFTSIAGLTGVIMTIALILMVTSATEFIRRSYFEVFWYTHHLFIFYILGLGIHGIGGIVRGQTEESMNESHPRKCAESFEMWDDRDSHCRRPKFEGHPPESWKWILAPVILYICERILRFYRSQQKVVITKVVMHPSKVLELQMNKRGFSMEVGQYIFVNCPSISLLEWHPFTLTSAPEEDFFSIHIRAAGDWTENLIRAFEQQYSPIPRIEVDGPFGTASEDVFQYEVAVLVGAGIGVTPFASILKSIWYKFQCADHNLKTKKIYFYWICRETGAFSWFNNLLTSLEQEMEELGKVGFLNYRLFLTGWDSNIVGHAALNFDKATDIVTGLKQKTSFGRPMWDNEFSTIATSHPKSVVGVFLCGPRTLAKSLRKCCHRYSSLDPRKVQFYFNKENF
It is filed as functional, cell-based.

For experiment [8], the target named is T6, Short transient receptor potential channel 4 (Mus musculus, UniProt Q9QUQ5).
T6 sequence (Q9QUQ5 whole entry): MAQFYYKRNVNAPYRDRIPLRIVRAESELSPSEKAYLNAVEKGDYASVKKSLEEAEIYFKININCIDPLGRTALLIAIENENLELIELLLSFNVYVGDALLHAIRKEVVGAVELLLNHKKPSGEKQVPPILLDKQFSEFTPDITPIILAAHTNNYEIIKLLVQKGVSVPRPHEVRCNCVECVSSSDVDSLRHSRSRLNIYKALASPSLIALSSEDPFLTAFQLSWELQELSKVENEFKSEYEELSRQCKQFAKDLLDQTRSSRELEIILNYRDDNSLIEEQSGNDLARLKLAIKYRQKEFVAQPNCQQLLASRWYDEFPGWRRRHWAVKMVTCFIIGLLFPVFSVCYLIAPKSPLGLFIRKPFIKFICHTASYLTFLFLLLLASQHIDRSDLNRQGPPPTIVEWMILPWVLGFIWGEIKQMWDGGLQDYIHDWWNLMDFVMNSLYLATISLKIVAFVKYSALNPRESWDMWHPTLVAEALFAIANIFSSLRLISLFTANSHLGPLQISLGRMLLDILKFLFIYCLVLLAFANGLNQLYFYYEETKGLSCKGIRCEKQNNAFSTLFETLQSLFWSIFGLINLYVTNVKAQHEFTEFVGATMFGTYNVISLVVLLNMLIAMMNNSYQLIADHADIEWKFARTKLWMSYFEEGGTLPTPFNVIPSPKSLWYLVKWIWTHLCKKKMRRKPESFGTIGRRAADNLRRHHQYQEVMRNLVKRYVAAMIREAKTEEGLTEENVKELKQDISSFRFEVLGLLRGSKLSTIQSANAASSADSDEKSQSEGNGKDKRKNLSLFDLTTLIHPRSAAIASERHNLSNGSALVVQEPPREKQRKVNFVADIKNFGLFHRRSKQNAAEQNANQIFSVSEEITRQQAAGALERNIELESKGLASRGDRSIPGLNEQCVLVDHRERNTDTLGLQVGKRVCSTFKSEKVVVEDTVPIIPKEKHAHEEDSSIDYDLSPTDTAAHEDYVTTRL
Nature of the experiment: block of DAMGO-driven TRPC4 calcium entry – cell-based, HEK293 TRPC4/mu-opioid, Fluo-4 calcium, dose response (AID 434942).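 Note: potency of inhibitors blocking the TRPC4 calcium response.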 Type of experiment: functional.

The structures appear in SMILES notation. Counter-ions that a name gives are not always drawn. Calls of active or inactive are those of the source.

Epstein-Barr nuclear antigen 1, sequence (P03211 whole entry): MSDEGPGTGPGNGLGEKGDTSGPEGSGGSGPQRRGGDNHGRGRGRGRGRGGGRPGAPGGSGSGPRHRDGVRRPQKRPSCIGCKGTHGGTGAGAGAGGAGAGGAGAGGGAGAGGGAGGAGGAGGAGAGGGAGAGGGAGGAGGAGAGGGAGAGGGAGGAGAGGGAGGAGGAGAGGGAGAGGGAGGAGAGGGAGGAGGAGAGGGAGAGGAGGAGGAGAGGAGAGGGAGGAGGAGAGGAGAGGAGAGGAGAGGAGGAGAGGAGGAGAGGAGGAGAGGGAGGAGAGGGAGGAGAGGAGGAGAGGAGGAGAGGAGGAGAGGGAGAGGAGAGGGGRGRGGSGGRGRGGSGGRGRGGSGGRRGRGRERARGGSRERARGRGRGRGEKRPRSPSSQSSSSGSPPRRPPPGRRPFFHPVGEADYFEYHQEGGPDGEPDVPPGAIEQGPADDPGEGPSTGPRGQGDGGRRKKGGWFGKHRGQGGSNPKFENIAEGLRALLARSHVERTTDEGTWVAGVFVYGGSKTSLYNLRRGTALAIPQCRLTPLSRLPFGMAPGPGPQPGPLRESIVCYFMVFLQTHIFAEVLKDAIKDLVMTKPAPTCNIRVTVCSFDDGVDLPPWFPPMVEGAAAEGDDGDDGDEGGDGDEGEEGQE
Lytic switch protein BZLF1, sequence (P03206 whole entry): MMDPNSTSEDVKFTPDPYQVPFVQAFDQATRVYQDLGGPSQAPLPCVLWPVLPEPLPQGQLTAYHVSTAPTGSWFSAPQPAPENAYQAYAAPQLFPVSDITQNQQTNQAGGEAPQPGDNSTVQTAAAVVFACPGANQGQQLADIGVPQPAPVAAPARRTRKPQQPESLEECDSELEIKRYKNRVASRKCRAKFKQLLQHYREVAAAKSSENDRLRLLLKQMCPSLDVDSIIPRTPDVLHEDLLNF
Luciferin 4-monooxygenase, sequence (P08659 whole entry): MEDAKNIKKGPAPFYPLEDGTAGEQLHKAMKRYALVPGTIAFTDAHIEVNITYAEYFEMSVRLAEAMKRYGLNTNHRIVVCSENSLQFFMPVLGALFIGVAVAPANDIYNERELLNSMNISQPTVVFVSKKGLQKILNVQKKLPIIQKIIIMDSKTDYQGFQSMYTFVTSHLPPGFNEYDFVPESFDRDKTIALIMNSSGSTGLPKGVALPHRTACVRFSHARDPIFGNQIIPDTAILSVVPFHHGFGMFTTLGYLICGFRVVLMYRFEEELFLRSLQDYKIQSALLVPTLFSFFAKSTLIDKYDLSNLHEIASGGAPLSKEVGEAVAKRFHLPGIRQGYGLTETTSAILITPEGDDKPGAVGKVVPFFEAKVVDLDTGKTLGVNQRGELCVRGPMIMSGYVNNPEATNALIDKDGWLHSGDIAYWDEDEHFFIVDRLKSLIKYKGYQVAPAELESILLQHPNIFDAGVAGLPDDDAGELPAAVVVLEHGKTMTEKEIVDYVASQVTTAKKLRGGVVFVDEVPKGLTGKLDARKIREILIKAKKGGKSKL
Ion channel NompC, sequence (Q7T1G6 whole entry): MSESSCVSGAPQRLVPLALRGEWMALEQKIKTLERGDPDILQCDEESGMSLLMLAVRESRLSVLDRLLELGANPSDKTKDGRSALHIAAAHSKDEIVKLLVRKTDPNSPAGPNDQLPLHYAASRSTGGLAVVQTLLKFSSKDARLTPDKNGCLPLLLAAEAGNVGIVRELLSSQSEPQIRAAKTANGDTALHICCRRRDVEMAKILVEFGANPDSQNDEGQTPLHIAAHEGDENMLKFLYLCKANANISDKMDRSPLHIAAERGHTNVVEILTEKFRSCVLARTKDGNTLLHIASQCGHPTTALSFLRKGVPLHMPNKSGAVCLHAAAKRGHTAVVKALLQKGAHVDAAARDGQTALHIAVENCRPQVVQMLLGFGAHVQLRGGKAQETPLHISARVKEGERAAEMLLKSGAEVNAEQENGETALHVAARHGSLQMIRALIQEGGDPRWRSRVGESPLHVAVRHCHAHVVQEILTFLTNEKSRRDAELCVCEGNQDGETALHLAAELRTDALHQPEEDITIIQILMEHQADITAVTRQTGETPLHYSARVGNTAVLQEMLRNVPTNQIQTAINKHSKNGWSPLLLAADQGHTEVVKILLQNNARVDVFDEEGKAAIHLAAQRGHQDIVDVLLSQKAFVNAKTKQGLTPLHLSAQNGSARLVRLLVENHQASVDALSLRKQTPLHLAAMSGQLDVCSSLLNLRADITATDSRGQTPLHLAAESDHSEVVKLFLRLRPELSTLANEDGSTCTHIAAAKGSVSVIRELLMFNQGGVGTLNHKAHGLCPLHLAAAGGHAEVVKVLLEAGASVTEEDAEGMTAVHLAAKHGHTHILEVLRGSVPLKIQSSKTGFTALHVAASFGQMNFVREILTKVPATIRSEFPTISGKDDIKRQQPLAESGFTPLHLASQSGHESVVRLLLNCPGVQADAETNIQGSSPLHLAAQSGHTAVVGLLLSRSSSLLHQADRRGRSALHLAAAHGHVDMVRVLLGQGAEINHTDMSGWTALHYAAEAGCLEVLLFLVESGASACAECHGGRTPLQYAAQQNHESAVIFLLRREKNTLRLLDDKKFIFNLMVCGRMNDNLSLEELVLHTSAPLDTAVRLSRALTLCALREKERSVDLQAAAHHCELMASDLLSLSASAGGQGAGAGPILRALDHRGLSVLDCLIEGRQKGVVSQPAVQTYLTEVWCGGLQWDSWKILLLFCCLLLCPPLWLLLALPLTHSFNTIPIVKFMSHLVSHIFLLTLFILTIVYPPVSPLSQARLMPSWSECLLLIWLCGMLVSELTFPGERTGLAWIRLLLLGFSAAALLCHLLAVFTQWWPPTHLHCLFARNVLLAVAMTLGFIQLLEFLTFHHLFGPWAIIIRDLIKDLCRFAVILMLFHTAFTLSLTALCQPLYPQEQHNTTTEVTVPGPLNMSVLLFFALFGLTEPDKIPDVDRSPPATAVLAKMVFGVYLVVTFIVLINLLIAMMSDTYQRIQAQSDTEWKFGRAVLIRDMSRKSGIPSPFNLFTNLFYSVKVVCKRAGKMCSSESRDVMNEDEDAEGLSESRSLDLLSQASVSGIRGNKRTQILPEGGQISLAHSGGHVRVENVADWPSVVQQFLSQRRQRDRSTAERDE
Procathepsin L, sequence (P07711 whole entry): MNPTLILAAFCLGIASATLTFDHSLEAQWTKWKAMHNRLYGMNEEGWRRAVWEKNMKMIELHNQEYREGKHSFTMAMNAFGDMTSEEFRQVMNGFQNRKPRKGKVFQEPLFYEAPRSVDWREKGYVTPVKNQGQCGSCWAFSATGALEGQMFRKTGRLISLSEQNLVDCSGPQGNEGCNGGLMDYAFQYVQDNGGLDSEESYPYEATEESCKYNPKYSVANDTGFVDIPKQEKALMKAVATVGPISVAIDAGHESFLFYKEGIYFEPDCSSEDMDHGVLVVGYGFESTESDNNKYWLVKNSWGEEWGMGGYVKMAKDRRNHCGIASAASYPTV
Voltage-gated inwardly rectifying potassium channel KCNH2, sequence (Q12809 whole entry): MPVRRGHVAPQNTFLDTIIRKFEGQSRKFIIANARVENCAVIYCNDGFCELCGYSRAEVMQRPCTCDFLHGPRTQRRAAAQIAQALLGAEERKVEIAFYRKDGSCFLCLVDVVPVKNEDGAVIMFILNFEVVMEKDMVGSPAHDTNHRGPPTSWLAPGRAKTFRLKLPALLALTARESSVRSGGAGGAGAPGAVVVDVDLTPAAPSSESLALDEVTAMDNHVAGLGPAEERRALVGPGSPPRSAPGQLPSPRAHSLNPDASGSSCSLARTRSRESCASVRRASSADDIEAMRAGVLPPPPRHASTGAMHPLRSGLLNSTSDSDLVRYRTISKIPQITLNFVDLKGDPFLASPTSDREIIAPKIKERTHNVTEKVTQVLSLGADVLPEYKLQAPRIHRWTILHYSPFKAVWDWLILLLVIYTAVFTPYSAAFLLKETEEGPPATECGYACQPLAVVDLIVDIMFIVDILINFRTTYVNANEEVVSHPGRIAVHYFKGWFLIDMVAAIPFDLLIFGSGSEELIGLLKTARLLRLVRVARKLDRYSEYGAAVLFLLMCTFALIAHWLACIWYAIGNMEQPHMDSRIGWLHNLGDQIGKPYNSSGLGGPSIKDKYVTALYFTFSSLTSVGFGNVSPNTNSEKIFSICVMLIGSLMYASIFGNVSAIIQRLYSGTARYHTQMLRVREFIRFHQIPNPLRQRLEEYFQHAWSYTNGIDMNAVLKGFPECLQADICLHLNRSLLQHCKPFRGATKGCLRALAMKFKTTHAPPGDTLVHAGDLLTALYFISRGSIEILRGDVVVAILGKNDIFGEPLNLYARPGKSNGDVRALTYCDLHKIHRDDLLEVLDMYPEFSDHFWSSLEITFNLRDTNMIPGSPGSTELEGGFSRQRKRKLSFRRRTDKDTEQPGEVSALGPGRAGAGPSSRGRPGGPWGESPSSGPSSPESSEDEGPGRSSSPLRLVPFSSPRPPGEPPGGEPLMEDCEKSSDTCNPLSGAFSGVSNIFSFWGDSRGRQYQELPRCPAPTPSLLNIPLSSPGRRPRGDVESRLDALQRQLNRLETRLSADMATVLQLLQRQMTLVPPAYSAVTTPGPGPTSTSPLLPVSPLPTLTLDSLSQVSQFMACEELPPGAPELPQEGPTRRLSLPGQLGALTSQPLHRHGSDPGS
Glyceraldehyde-3-phosphate dehydrogenase, sequence (P04406 whole entry): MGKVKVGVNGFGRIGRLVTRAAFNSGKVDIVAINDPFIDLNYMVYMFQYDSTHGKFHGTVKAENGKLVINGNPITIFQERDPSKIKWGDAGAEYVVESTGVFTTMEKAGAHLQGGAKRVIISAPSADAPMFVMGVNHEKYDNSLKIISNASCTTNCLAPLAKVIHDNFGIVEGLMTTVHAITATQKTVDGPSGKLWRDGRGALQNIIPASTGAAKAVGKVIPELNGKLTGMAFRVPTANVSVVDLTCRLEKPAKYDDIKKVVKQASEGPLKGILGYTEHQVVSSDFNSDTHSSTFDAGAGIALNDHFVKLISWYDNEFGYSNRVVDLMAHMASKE

In the case of `O=C(NNC(=O)c1ccc(NC(=O)c2ccccc2)cc1)c1ccc(F)cc1`, the IC50 in experiment [1] was 6.82 µM (active); in experiment [2], > 111 µM (not active).

`CC(C)(C)[C@]1(O)CCN2C[C@H]3c4ccccc4CCc4cccc(c43)[C@@H]2C1` [BUTACLAMOL HYDROCHLORIDE]: the EC50 was > 29.9 µM (not active) on Ion channel NompC and 3.98 µM (active) on Mucolipin-3. The AC50 in [3] was 6.31 µM (active).

For the compound `COc1ccc(NC(=O)c2nnc(O)c3ccccc23)cc1S(=O)(=O)N1CCCCC1`, the IC50 in experiment [4] is on record as 21 µM (not active); in experiment [5], 19.6 µM (not active).

In the case of `COc1ccc(S(=O)(=O)N2CCCCCC2)cc1Br`, the EC50 at Ion channel NompC was > 29.9 µM (not active); at Mucolipin-3, 2.67 µM (active).

Regarding `Cc1cc(C)c(C)c(S(=O)(=O)Nc2ccccc2C(=O)NCCCn2ccnc2)c1C`, the figures for the EC50 (in the experiment on HT-1080; in [6]) were > 50 µM (not active) and 61.1 µM (active), respectively. Moreover, in experiment [7], the IC50 is listed as > 100 µM (not active).

In the case of `Cc1ccc(N=C2CCc3ccccc3N2)cc1`, in [6], the EC50 was 80.9 µM (active).

Turning to `COC(=O)c1cc(C(=O)Nn2cnnc2)cc([N+](=O)[O-])c1`, the IC50 was 2.37 µM (active) at Aspartyl aminopeptidase and > 59.6 µM (not active) on Procathepsin L.

Take `O=C(NC(=S)Nc1ccc(S(=O)(=O)N2CCCCCC2)cc1)c1cccs1`: the figures for the IC50 in [1] and in experiment [2] were 14.8 µM (not active) and > 111 µM (not active), respectively.

Turning to `O=C(CCC(=O)Nc1ccc(F)cc1)Nc1ccc(F)cc1`, at NADPH oxidase 1, the IC50 is > 17 µM (not active).

Regarding `COc1cc(/C=N/Nc2c(Cl)c(Cl)nc(C(=O)O)c2Cl)cc(OC)c1OC`, the half-inhibitory concentration (IC50) against NADPH oxidase 1 is recorded as > 17 µM (not active).

For `C=CCNc1nc(N2CCCC2)nc2ccccc12`, the half-maximal effective concentration (EC50) in experiment [8] was 1.19 µM (active). In addition, the IC50 in experiment [4] is recorded as 11.8 µM (not active); in [5] it was > 35 µM (not active).

For orientation: IC50 means the concentration that gives 50% inhibition. As a reminder, the EC50 is the midpoint of the concentration-response curve. A word on the AC50: it is the concentration giving half of the maximal activity seen.

The values above are taken from ChEMBL document CHEMBL1201862, “PubChem BioAssay data set” (2004).
